According to patent publication US20100298141A1, “SUBSTITUTED PYRIDINE N-OXIDE HERBICIDES” (E. I. DU PONT DE NEMOURS AND COMPANY, priority 2007, published 2010):

Columns and labels:
Test in all cases: Test F preemergence test
johnsongrass = type: in vivo, Sorghum halepense; conditions: scale 0 to 100
Summary of the method: (§1)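 Compound in a non-phytotoxic solvent blend with surfactant is applied preemergence to planted seeds or postemergence to sugarcane plants. Plants and controls stay in the greenhouse 14 to 21 days before visual comparison.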

common groundsel = type: in vivo, Senecio vulgaris; conditions: scale 0 to 100
Summary of the method: as §1

green foxtail = type: in vivo, Setaria viridis; conditions: scale 0 to 100
Summary of the method: as §1

purple nutsedge = type: in vivo, Cyperus rotundus; conditions: scale 0 to 100
Summary of the method: as §1

barnyardgrass = type: in vivo, Echinochloa crus-galli
Summary of the method: as §1

annual bluegrass = type: in vivo, Poa annua; conditions: scale 0 to 100
Summary of the method: as §1

field bindweed = type: in vivo, Convolvulus arvensis; conditions: scale 0 to 100
Summary of the method: as §1

goosegrass = type: in vivo, Eleusine indica; conditions: scale 0 to 100
Summary of the method: as §1

large crabgrass = type: in vivo, Digitaria sanguinalis; conditions: scale 0 to 100
Summary of the method: as §1

common purslane = type: in vivo, Portulaca oleracea; conditions: scale 0 to 100
Summary of the method: as §1

naked crabgrass = type: in vivo, Digitaria nuda; conditions: scale 0 to 100
Summary of the method: as §1

common ragweed = type: in vivo, Ambrosia elation; conditions: scale 0 to 100
Summary of the method: as §1

itchgrass = type: in vivo, Rottboellia cochinchinensis; conditions: scale 0 to 100
Summary of the method: as §1

pitted morningglory = type: in vivo, Ipomoea lacunosa; conditions: scale 0 to 100
Text: Seeds of plant species selected from bermudagrass (Cynodon dactylon), Surinam grass (Brachiaria decumbens), large crabgrass (Digitaria sanguinalis), green foxtail (Setaria viridis), goosegrass (Eleusine indica), johnsongrass (Sorghum halepense), kochia (Kochia scoparia), pitted morningglory (Ipomoea lacunosa), purple nutsedge (Cyperus rotundus), common ragweed (Ambrosia elation), mustard (Brassica nigra), guineagrass (Panicum maximum), […] (Paspalum dilatatum), barnyardgrass (Echinochloa crus-galli), southern sandbur (Cenchrus echinatus), common sowthistle (Sonchus oleraceous), prickly […] spinosa), Italian ryegrass (Lolium multiflorum), common purslane (Portulaca oleracea), broadleaf signalgrass (Brachiaria platyphylla), common groundsel (Senecio vulgaris), common chickweed (Stellaria media), Virginia dayflower (Commelina virginica), annual bluegrass (Poa annua), naked crabgrass (Digitaria nuda), […] cochinchinensis), quackgrass (Elytrigia repens), Canada horseweed (Conyza canadensis), field bindweed (Convolvulus arvensis), […] (Bidens bipinnata), common mallow (Malva sylvestris), Russian thistle (Salsola kali), and sugarcane (Saccharum officinarum) were planted and treated preemergence with test chemicals formulated in a non-phytotoxic solvent mixture which included a surfactant. At a different time, sugarcane was treated with postemergence applications of some of the test chemicals formulated in the same manner. Plants were approximately 3- to 4-leaf stage for the postemergence treatments. Treated plants and controls were maintained in a greenhouse for 14 to 21 days, after which time all species were compared to controls and visually evaluated. […] A dash (-) response means no test result.

southern sandbur = type: in vivo, Cenchrus echinatus; conditions: scale 0 to 100
Summary of the method: as §1

Italian ryegrass = type: in vivo, Lolium multiflorum; conditions: scale 0 to 100
Summary of the method: as §1

[1] = 62 g ai/ha, Preemergence, scale 0 to 100
[2] = Preemergence, 31 g ai/ha, scale 0 to 100

CCn1nc(C(F)(F)F)c(CS(=O)(=O)c2cc(C)cc[n+]2[O-])c1OCC(F)(F)F [Compound 64]
Plant response rating, Johnsongrass (johnsongrass; 16 g ai/ha, preemergence): 0
Johnsongrass plant response rating (johnsongrass; 62 g ai/ha, Preemergence): 90
Johnsongrass plant response rating (johnsongrass; 125 g ai/ha, preemergence): 100
Plant response rating, Johnsongrass (johnsongrass; Preemergence, 31 g ai/ha): 75
Plant response rating, Groundsel (common groundsel; 16 g ai/ha, preemergence): 0
Groundsel plant response rating (common groundsel; 62 g ai/ha, Preemergence): 15
Groundsel plant response rating (common groundsel; 125 g ai/ha, preemergence): 80
Plant response rating, Groundsel (common groundsel; Preemergence, 31 g ai/ha): 0
Plant response rating, Foxtail, Green (green foxtail; 16 g ai/ha, preemergence): 15
Foxtail, Green plant response rating (green foxtail; 62 g ai/ha, Preemergence): 95
Foxtail, Green plant response rating (green foxtail; 125 g ai/ha, preemergence): 100
Plant response rating, Foxtail, Green (green foxtail; Preemergence, 31 g ai/ha): 60
Plant response rating, Purple Nutsedge (purple nutsedge; 16 g ai/ha, preemergence): 20
Purple Nutsedge plant response rating (purple nutsedge; 62 g ai/ha, Preemergence): 50
Purple Nutsedge plant response rating (purple nutsedge; 125 g ai/ha, preemergence): 80
Plant response rating, Purple Nutsedge (purple nutsedge; Preemergence, 31 g ai/ha): 50
Plant response rating, Barnyardgrass (barnyardgrass; 16 g ai/ha, preemergence, scale 0 to 100 (0 no effect, 100 complete control)): 65
Barnyardgrass plant response rating (barnyardgrass; [1]): 100
Barnyardgrass plant response rating (barnyardgrass; 125 g ai/ha, preemergence, scale 0 to 100): 100
Plant response rating, Barnyardgrass (barnyardgrass; [2]): 80
Plant response rating, Bluegrass (annual bluegrass; 16 g ai/ha, preemergence): 0
Bluegrass plant response rating (annual bluegrass; 62 g ai/ha, Preemergence): 90
Bluegrass plant response rating (annual bluegrass; 125 g ai/ha, preemergence): 90
Plant response rating, Bluegrass (annual bluegrass; Preemergence, 31 g ai/ha): 0
Plant response rating, Field Bindweed (field bindweed; 16 g ai/ha, preemergence): 0
Field Bindweed plant response rating (field bindweed; 62 g ai/ha, Preemergence): 0
Field Bindweed plant response rating (field bindweed; 125 g ai/ha, preemergence): 40
Plant response rating, Field Bindweed (field bindweed; Preemergence, 31 g ai/ha): 0
Plant response rating, Goosegrass (goosegrass; 16 g ai/ha, preemergence): 75
Goosegrass plant response rating (goosegrass; 62 g ai/ha, Preemergence): 90
Goosegrass plant response rating (goosegrass; 125 g ai/ha, preemergence): 98
Plant response rating, Goosegrass (goosegrass; Preemergence, 31 g ai/ha): 90
Plant response rating, Crabgrass, Large (large crabgrass; 16 g ai/ha, preemergence): 10
Crabgrass, Large plant response rating (large crabgrass; 62 g ai/ha, Preemergence): 75
Crabgrass, Large plant response rating (large crabgrass; 125 g ai/ha, preemergence): 95
Plant response rating, Crabgrass, Large (large crabgrass; Preemergence, 31 g ai/ha): 65
Plant response rating, Purslane (common purslane; 16 g ai/ha, preemergence): 0
Purslane plant response rating (common purslane; 62 g ai/ha, Preemergence): 30
Purslane plant response rating (common purslane; 125 g ai/ha, preemergence): 60
Plant response rating, Purslane (common purslane; Preemergence, 31 g ai/ha): 10
Plant response rating, Crabgrass, Naked (naked crabgrass; 16 g ai/ha, preemergence): 30
Crabgrass, Naked plant response rating (naked crabgrass; 62 g ai/ha, Preemergence): 100
Crabgrass, Naked plant response rating (naked crabgrass; 125 g ai/ha, preemergence): 100
Plant response rating, Crabgrass, Naked (naked crabgrass; Preemergence, 31 g ai/ha): 40
Plant response rating, Ragweed (common ragweed; 16 g ai/ha, preemergence): 0
Ragweed plant response rating (common ragweed; 125 g ai/ha, preemergence): 85
Plant response rating, Ragweed (common ragweed; Preemergence, 62 g ai/ha): 50
Plant response rating, Ragweed (common ragweed; Preemergence, 31 g ai/ha): 30
Plant response rating, Itchgrass (itchgrass; 16 g ai/ha, preemergence): 0
Itchgrass plant response rating (itchgrass; 62 g ai/ha, Preemergence): 30
Itchgrass plant response rating (itchgrass; 125 g ai/ha, preemergence): 75
Plant response rating, Itchgrass (itchgrass; Preemergence, 31 g ai/ha): 30
Plant response rating, Morningglory (pitted morningglory; 16 g ai/ha, preemergence): 0
Morningglory plant response rating (pitted morningglory; 62 g ai/ha, Preemergence): 0
Morningglory plant response rating (pitted morningglory; 125 g ai/ha, preemergence): 35
Plant response rating, Morningglory (pitted morningglory; Preemergence, 31 g ai/ha): 0
Plant response rating, Sandbur (southern sandbur; 16 g ai/ha, preemergence): 25
Sandbur plant response rating (southern sandbur; 125 g ai/ha, preemergence): 100
Plant response rating, Sandbur (southern sandbur; Preemergence, 62 g ai/ha): 80
Plant response rating, Sandbur (southern sandbur; Preemergence, 31 g ai/ha): 80
Plant response rating, Ryegrass, Italian (Italian ryegrass; 16 g ai/ha, preemergence): 0
Ryegrass, Italian plant response rating (Italian ryegrass; 125 g ai/ha, preemergence): 90
Plant response rating, Ryegrass, Italian (Italian ryegrass; Preemergence, 62 g ai/ha): 75
Plant response rating, Ryegrass, Italian (Italian ryegrass; Preemergence, 31 g ai/ha): 20

Cc1cc[n+]([O-])c(S(=O)(=O)Cc2c(C(F)(F)F)nn(C)c2OC(F)F)c1 [Compound 2]
Johnsongrass plant response rating (johnsongrass; 62 g ai/ha, Preemergence): 85
Plant response rating, Johnsongrass (johnsongrass; Preemergence, 31 g ai/ha): 70
Plant response rating, Groundsel (common groundsel; 8 g ai/ha, preemergence): 0
Groundsel plant response rating (common groundsel; 62 g ai/ha, Preemergence): 50
Plant response rating, Groundsel (common groundsel; Preemergence, 16 g ai/ha): 0
Plant response rating, Groundsel (common groundsel; Preemergence, 31 g ai/ha): 50
Plant response rating, Foxtail, Green (green foxtail; 8 g ai/ha, preemergence): 0
Foxtail, Green plant response rating (green foxtail; 62 g ai/ha, Preemergence): 80
Plant response rating, Foxtail, Green (green foxtail; Preemergence, 16 g ai/ha): 20
Plant response rating, Foxtail, Green (green foxtail; Preemergence, 31 g ai/ha): 65
Plant response rating, Purple Nutsedge (purple nutsedge; 8 g ai/ha, preemergence): 0
Purple Nutsedge plant response rating (purple nutsedge; 62 g ai/ha, Preemergence): 100
Plant response rating, Purple Nutsedge (purple nutsedge; Preemergence, 16 g ai/ha): 15
Plant response rating, Purple Nutsedge (purple nutsedge; Preemergence, 31 g ai/ha): 70
Plant response rating, Barnyardgrass (barnyardgrass; 8 g ai/ha, preemergence, scale 0 to 100): 0
Barnyardgrass plant response rating (barnyardgrass; [1]): 100
Plant response rating, Barnyardgrass (barnyardgrass; Preemergence, 16 g ai/ha, scale 0 to 100): 10
Plant response rating, Barnyardgrass (barnyardgrass; [2]): 80
Plant response rating, Bluegrass (annual bluegrass; 8 g ai/ha, preemergence): 0
Bluegrass plant response rating (annual bluegrass; 62 g ai/ha, Preemergence): 25
Plant response rating, Bluegrass (annual bluegrass; Preemergence, 16 g ai/ha): 0
Plant response rating, Bluegrass (annual bluegrass; Preemergence, 31 g ai/ha): 15
Plant response rating, Field Bindweed (field bindweed; 8 g ai/ha, preemergence): 0
Field Bindweed plant response rating (field bindweed; 62 g ai/ha, Preemergence): 0
Plant response rating, Field Bindweed (field bindweed; Preemergence, 16 g ai/ha): 0
Plant response rating, Field Bindweed (field bindweed; Preemergence, 31 g ai/ha): 0
Plant response rating, Goosegrass (goosegrass; 8 g ai/ha, preemergence): 35
Goosegrass plant response rating (goosegrass; 62 g ai/ha, Preemergence): 98
Plant response rating, Goosegrass (goosegrass; Preemergence, 16 g ai/ha): 70
Plant response rating, Goosegrass (goosegrass; Preemergence, 31 g ai/ha): 90
Plant response rating, Crabgrass, Large (large crabgrass; 8 g ai/ha, preemergence): 0
Crabgrass, Large plant response rating (large crabgrass; 62 g ai/ha, Preemergence): 90
Plant response rating, Crabgrass, Large (large crabgrass; Preemergence, 16 g ai/ha): 0
Plant response rating, Crabgrass, Large (large crabgrass; Preemergence, 31 g ai/ha): 50
Plant response rating, Purslane (common purslane; 8 g ai/ha, preemergence): 0
Purslane plant response rating (common purslane; 62 g ai/ha, Preemergence): 50
Plant response rating, Purslane (common purslane; Preemergence, 16 g ai/ha): 0
Plant response rating, Purslane (common purslane; Preemergence, 31 g ai/ha): 40
Plant response rating, Crabgrass, Naked (naked crabgrass; 8 g ai/ha, preemergence): 0
Crabgrass, Naked plant response rating (naked crabgrass; 62 g ai/ha, Preemergence): 80
Plant response rating, Crabgrass, Naked (naked crabgrass; Preemergence, 16 g ai/ha): 35
Plant response rating, Crabgrass, Naked (naked crabgrass; Preemergence, 31 g ai/ha): 65
Plant response rating, Itchgrass (itchgrass; 8 g ai/ha, preemergence): 0
Itchgrass plant response rating (itchgrass; 62 g ai/ha, Preemergence): 70
Plant response rating, Itchgrass (itchgrass; Preemergence, 16 g ai/ha): 20
Plant response rating, Itchgrass (itchgrass; Preemergence, 31 g ai/ha): 60
Plant response rating, Morningglory (pitted morningglory; 8 g ai/ha, preemergence): 0
Morningglory plant response rating (pitted morningglory; 62 g ai/ha, Preemergence): 60
Plant response rating, Morningglory (pitted morningglory; Preemergence, 16 g ai/ha): 0
Plant response rating, Morningglory (pitted morningglory; Preemergence, 31 g ai/ha): 15
Plant response rating, Sandbur (southern sandbur; 8 g ai/ha, preemergence): 0
Plant response rating, Sandbur (southern sandbur; 16 g ai/ha, preemergence): 0
Sandbur plant response rating (southern sandbur; 62 g ai/ha, Preemergence): 100
Plant response rating, Sandbur (southern sandbur; Preemergence, 31 g ai/ha): 30
Plant response rating, Ryegrass, Italian (Italian ryegrass; 8 g ai/ha, preemergence): 0
Ryegrass, Italian plant response rating (Italian ryegrass; 62 g ai/ha, Preemergence): 35
Plant response rating, Ryegrass, Italian (Italian ryegrass; Preemergence, 16 g ai/ha): 0
Plant response rating, Ryegrass, Italian (Italian ryegrass; Preemergence, 31 g ai/ha): 20
